One data set addresses T1, CSF1R (Homo sapiens, UniProt P07333).
T1 construct: CSF-1R Q547- C972; M-His(6) (N)
T1 sequence (P07333 547-972): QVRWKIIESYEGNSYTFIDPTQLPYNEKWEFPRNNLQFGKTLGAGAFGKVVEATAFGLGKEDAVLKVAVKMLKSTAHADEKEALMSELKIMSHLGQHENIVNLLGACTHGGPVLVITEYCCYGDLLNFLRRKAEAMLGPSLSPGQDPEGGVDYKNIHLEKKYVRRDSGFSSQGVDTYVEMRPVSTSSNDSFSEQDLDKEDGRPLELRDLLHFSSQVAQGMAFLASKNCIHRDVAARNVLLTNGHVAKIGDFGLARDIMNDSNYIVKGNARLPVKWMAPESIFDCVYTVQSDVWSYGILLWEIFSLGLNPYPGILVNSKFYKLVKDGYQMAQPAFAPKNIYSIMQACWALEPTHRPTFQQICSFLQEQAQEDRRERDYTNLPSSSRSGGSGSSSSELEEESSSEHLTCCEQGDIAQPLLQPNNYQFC
The experiment in a line: HTRF in vitro kinase assay, CSF1R. It counts as biochemical. The following applies: 1 mM ATP. As to the method:
(§1) To determine the activity of the various kinases, a homogenous time-resolved fluorescence (HTRF) in vitro kinase assay was used. (Mathis, G., HTRF(R) Technology. J Biomol Screen, 1999. 4(6): p. 309-314; Alfred J. Kolb, Paul V. Kaplita, David J. Hayes, Young-Whan Park, Christine Pernell, John S. Major and Gerard Mathis, Drug Discovery Today, 1998, 3, 333-342.)
(§2) For example for KDR, cKIT, FLT1, CSF1R and FTL3, purified enzyme was mixed with 0.5 μM N-biotinylated substrate (Biotin-Ahx-[…]-amide (SEQ. ID. 1)), various concentrations of inhibitor in reaction buffer (50 mM HEPES, pH 7.1, 10 mM MgCl2, 2 mM MnCl2, 0.1% BSA and 1 mM DTT, 40 μL final volume), ATP (1 mM final conc.) in a black 384-well plate. […] The quenched reaction was allowed to stand at room temperature for 3 hours and was then read in a time-resolved fluorescence detector (InVision, Perkin-Elmer) at 620 nm and 665 nm sequentially with excitation. The ratio between the signal of 620 nm and 665 nm was used in the calculation of the IC50.
On the technique in general: Time-resolved FRET reads energy transfer from a long-lived donor to a nearby acceptor.

The next data set addresses T2, Aurora A (Homo sapiens, UniProt O14965).
T2 sequence (O14965 1-403): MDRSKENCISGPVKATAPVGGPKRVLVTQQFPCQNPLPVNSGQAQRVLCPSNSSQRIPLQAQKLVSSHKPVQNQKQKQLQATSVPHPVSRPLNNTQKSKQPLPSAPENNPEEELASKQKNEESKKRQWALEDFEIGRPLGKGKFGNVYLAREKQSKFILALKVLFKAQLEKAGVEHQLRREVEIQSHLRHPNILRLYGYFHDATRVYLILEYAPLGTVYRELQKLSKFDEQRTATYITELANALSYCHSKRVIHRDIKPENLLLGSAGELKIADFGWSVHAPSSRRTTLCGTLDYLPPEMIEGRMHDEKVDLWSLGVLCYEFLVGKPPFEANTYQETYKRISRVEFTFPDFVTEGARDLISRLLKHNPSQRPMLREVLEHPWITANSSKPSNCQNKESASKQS
The experiment in a line: Aurora A enzyme assay (time-resolved fluorescence). Conditions: 1 mM ATP. In kind it is biochemical. As to the method:
After 1 hour, the reaction was stopped with EDTA and anti-phospho-STK antibody Europium Cryptate (Upstate) and SA-XL665 (Upstate) were added to detect the phosphopeptide. The amount of phosphorylation was determined by the time-resolved fluorescence ratio of signals at 665 nm and 615 nm. The IC50s were calculated by an exponential fit of the inhibition values with the inhibitor concentrations using Assay Explorer software.

The next data set in a line: CLND Solubility Assay. It counts as physicochemical. As for the experimental part:
Chemiluminescent nitrogen detection (CLND) method oxidized the analyte to nitrogen oxide that reacted with ozone to provide a photon of light and was a measure of how much compound was in solution. Compounds must contain nitrogens for this experiment. Nitrogen impurities present in the compound will cause falsely high results. • 1. Compound concentration tested was 35 μM in 10 mM phosphate buffer, 7.2. • 2. Compounds were tested in triplicate. • 3. Compound concentration was determined by comparing readings to a caffeine standard curve. One standard curve was run before and after every test plate. For 3 test plates, four standard curves were generated.
Experimental Procedure: • 1. 5 μl of 5 mM test compound in DMSO was added to three adjacent wells in a plate. • 2. 695 μl of 10 mM phosphate buffer, pH 7.2, was added to each well. • 3. The plates were sealed. • 4. The plates were allowed to sonicate for 1 hour. • 5. The plates were shook on a plate orbital shaker for up to 6 hours. • 6. The plates were spinned at 5000 rpm (6000×G) overnight. • 7. Standard curves were prepared by adding 5 μl of stock solutions to wells according to Caffeine Concentrations for Standard Curve table below. • 8. Buffer (10 mM phosphate buffer, pH 7.2, 695 μl) was added. • 9. The plates were sealed. • 10. The plates were loaded onto a TOC/CLND. • 11. The results were analyzed after the run was completed.
The solubility was determined by comparing the reading generated by analysis of the sample to the standard curve. The value was then divided by the number of nitrogens contained in the compound. Corrections for impurities during the synthesis were included in the number of nitrogens. The resulting value was the reported solubility.

Another data set concerns the target T3, FLT3 (Homo sapiens, UniProt P36888).
T3 construct: FLT3 Q569- S993; M-His(6) (N)
T3 sequence (P36888 569-993): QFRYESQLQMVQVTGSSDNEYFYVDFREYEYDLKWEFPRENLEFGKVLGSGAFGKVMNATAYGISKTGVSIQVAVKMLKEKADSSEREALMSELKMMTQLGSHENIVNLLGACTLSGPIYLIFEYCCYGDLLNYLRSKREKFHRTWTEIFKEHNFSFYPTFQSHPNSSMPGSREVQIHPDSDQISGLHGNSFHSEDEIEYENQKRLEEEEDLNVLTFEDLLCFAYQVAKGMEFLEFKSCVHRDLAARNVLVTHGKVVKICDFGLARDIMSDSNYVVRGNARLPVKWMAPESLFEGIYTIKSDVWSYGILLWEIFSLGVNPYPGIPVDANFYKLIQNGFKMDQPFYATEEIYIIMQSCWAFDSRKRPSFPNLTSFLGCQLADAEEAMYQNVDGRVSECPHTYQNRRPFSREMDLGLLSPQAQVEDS
The experiment in a line: HTRF in vitro kinase assay, FLT3. In kind it is biochemical. The following applies: 1 mM ATP. As to the method: as §1, §2

The next data set concerns the target T4, KDR (Homo sapiens, UniProt P35968).
T4 construct: KDR 789- 1354; His6 (N)
The data set is described as follows: HTRF in vitro kinase assay, KDR. In kind it is biochemical. The following applies: 1 mM ATP. As to the method: as §1, §2

Here are results for one compound from patent US20130023555A1, “KINASE INHIBITOR WITH IMPROVED SOLUBILITY PROFILE” (Abbott Laboratories, priority 2011, published 2013).

As a reminder, the pIC50 is the IC50 on a negative log10 scale, so that one unit is a factor of ten. What is called solubility is how much of the substance goes into solution per volume.

pIC50: −log10 of the molar value. ≈ marks a conversion by molar mass, not a printed value.

T4 sequence (P35968 789-1354): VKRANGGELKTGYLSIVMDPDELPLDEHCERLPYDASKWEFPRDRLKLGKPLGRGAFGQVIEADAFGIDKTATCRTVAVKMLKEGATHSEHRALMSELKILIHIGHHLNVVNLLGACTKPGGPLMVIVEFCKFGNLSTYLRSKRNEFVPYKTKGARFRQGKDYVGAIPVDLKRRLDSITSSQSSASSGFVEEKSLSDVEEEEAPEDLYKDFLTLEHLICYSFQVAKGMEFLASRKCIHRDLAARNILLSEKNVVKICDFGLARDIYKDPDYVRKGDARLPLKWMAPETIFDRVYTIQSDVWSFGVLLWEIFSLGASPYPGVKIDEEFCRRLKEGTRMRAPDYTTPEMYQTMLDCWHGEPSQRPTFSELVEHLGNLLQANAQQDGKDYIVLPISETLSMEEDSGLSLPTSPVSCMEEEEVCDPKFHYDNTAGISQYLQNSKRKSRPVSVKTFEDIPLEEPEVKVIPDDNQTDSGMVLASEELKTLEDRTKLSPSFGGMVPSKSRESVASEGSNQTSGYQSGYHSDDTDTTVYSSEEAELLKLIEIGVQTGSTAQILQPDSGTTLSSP

As to `CNC(=O)c1cnc(N)c2c(-c3ccc(NC(=O)Nc4cccc(C)c4)cc3)csc12` [Example 2, 4-amino-N-methyl-3-(4-{[(3-methylphenyl)carbamoyl]amino}phenyl)thieno[3,2-c]pyridine-7-carboxamide], the pIC50 at CSF1R was 8.52; on Aurora A, 7.24; at FLT3, 8.70; at KDR, 8.70. In “CLND Solubility Assay” (aqueous buffer, kinetic from dmso stock, 35 μM compound in 10 mM phosphate buffer, pH 7.2), this compound returned a solubility of 6.03 µM (≈ 2.6 µg/mL). The “aqueous solubility, in words” value in “CLND Solubility Assay” (comment on Table 5) is on record as “extremely low aqueous solubility”.
